# From PubChem BioAssay (NCI)
#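 Test compounds were applied to cells in 96-well plates for 48 hours at 5 doses. GI50 = concentration required for 50% inhibition of growth. TGI marks complete inhibition of growth.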
# Tests used:
# Test in all cases: NCI anticancer screen, dose series, 48 h
# [1] = system: HCC-2998 colon
# [2] = system: UACC-62 melanoma
# [3] = system: HCT-15 colon
# [4] = system: CCRF-CEM leukemia
# [5] = system: HL-60(TB) leukemia
# [6] = system: OVCAR-8 ovarian
# [7] = system: NCI-H460 lung
# [8] = system: A498 renal
# [9] = system: OVCAR-4 ovarian
# [10] = system: HOP-92 NSCLC
Structure (SMILES),GI50 [1] [µM],TGI [1] [µM],GI50 [2] [µM],TGI [2] [µM],GI50 [3] [µM],TGI [3] [µM],GI50 [4] [µM],TGI [4] [µM],GI50 [5] [µM],TGI [5] [µM],GI50 [6] [µM],TGI [6] [µM],GI50 [7] [µM],TGI [7] [µM],GI50 [8] [µM],TGI [8] [µM],GI50 [9] [µM],TGI [9] [µM],GI50 [10] [µM],TGI [10] [µM]
CN(CCNCc1ccccn1)CCNCc1ccccn1,2.17,4.64,2.18,4.74,2.96,12.6,3.87,> 100,3.27,23.3,2.99,7.62,3.16,9.54,1.8,3.27,2.85,8.99,2.02,5.27
Cc1cccc2c3c(sc12)C(c1ccc(Cl)cc1)C(C#N)=C(N)O3 (stereo not given),0.67,6.43,0.327,11.3,0.374,2.81,0.382,32.1,0.3,1.21,0.471,6.89,0.37,3.92,0.211,1.2,2.08,18.5,1.32,19
NC(=O)NNC(=O)NC12CC3CC(CC(C3)C1)C2,,> 100,,> 100,,> 100,,> 100,,> 100,,> 100,,> 100,,> 100,,> 100,,> 100
Cc1ccc(C)c(N2C(=O)C(=O)C(c3nc4ccccc4s3)/C(=N/NC(=O)NN)C2=O)c1 (stereo not given),,> 100,,> 100,,> 100,,> 100,,> 100,,> 100,,> 100,,> 100,,> 100,,> 100
C[C@]12CC[C@@H]3c4cc(OC(F)F)c(OS(N)(=O)=O)cc4CC[C@H]3[C@@H]1CC[C@@H]2O,1.04,14,0.299,16.7,0.406,13.6,0.398,> 100,0.338,2.49,0.848,60.7,0.401,11.3,0.199,0.86,7.8,83.9,1.64,28.6
CCC1(O)C(=O)OCc2c1cc1n(c2=O)Cc2cc3c(NC(=O)CN)cccc3nc2-1 (stereo not given),5.07,25.6,0.0927,0.852,5.22,> 100,0.0208,1.43,0.129,1.64,0.557,30.2,0.122,3.88,0.883,5.65,7.53,36.7,2.47,24.1
O=[N+]([O-])c1ccc(N2CCOCC2)c2c1no[n+]2[O-],1.53,7.25,1.21,3.87,1.32,2.89,0.728,3.86,0.632,2.52,1.1,2.62,0.601,2.07,1.17,3.2,1.38,3.99,0.923,5.62
COc1cc2nc(-c3cc(F)ccc3O)nc(N[C@@H]3CNC[C@H]3C(C)(C)O)c2cc1OC,1.92,3.47,1.78,3.41,1.79,3.46,2.29,7.3,1.78,4.2,1.63,3.07,1.83,3.47,1.12,2.6,1.88,4.65,0.465,1.9
NS(=O)(=O)c1ccc(-c2cc3ccncc3cc2OCc2ccccc2)cc1,> 25,> 25,> 23.7,> 25,13.2,> 25,> 17.7,> 25,6.43,> 19.3,8.19,> 25,9.77,> 25,5.65,> 25,> 19.6,> 25,4.94,> 25
Cc1ccc(-c2nc([P+](c3ccccc3)(c3ccccc3)c3ccccc3)c(S(=O)(=O)c3ccc(C)cc3)o2)cc1,1.45,3.01,1.53,2.89,1.44,3.23,0.606,6.94,1.67,4.38,1.32,4.17,1.64,3.43,1.61,4.77,1.4,2.83,1.43,3.13
